The supplement of paper PMC5844555

How the values were obtained:
Assay in all cases: 3' UTR reporter interaction score (median-centred robust z-score of log2 firefly/Renilla activity); higher = less repression of the 3' UTR reporter
Settings in all cases: HEK293T; 48 h
FBXW7 = test system: FBXW7
In short: (§1)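 For the interaction score, the firefly/Renilla ratio was log-transformed, expressed as a robust z-score per plate using median and median absolute deviation, and median-centred per miRNA; a more negative score indicates interaction. These scores come from at least two independent screens, averaged. Each screen used HEK293T cells at 10,000/well in 96-well plates, co-transfected with DharmaFECT Duo carrying 100 ng luc2P 3' UTR reporter, 20 ng pRL-TK and 2.5 pmol miRNA mimic, with luciferase read at 48 h.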

ZEB2 = test system: ZEB2
In short: as §1

MYB = test system: MYB
In short: as §1

NOTCH1 = test system: NOTCH1
In short: as §1

PHOX2B = test system: PHOX2B
In short: as §1

TP53 = test system: TP53
In short: as §1

HRAS = test system: HRAS
In short: as §1

PHF6 = test system: PHF6
In short: as §1

RB1 = test system: RB1
In short: as §1

MYCN = test system: MYCN
In short: as §1

BRCA2 = test system: BRCA2
In short: as §1

EZH2 = test system: EZH2
In short: as §1

MYT1L = test system: MYT1L
In short: as §1

MYC = test system: MYC
In short: as §1

| Sequence | 3' UTR reporter interaction score (FBXW7) | 3' UTR reporter interaction score (ZEB2) | 3' UTR reporter interaction score (MYB) | 3' UTR reporter interaction score (NOTCH1) | 3' UTR reporter interaction score (PHOX2B) | 3' UTR reporter interaction score (TP53) | 3' UTR reporter interaction score (HRAS) | 3' UTR reporter interaction score (PHF6) | 3' UTR reporter interaction score (RB1) | 3' UTR reporter interaction score (MYCN) | 3' UTR reporter interaction score (BRCA2) | 3' UTR reporter interaction score (EZH2) | 3' UTR reporter interaction score (MYT1L) | 3' UTR reporter interaction score (MYC) |
| --- | --- | --- | --- | --- | --- | --- | --- | --- | --- | --- | --- | --- | --- | --- |
| UACCCUGUAGAACCGAAUUUGU | -0.174 | -1.8 | 0.245 | -1.66 | -0.86 | -0.546 | 0.849 | 0.333 | -0.148 | -0.116 | 0.189 | 1.07 | -2.07 | 0.546 |
| CUCUAGAGGGAAGCGCUUUCUGUU | -0.944 | 0.37 | 1.71 | 1.16 | -1.2 | 0.361 | -0.0223 | -0.0745 | -0.121 | -0.278 | -0.378 | -0.269 | 0.721 | 0.337 |
| GAAGUGUGCCGUGGUGUGUCU | 1.69 | -0.231 | -0.373 | -0.516 | 1.74 | 0.832 | -0.384 | -0.942 | 0.538 | -0.199 | -0.0229 | -0.113 | -1.67 | -0.0876 |
| CAAAGCGCUUCCCUUUGGAGC | 0.503 | 0.353 | -0.305 | 0.413 | 0.957 | -0.385 | 0.795 | 0.27 | -0.468 | 0.103 | -0.805 | 0.322 | -0.495 | -0.581 |
| AAAGUGCAUCUUUUUAGAGGAU | 0.857 | -0.325 | -2.04 | 0.996 | 0.606 | 1.24 | 0.493 | -0.0249 | -0.176 | 1.77 | -0.243 | -0.581 | -0.436 | 0.685 |
| AUUCCUAGAAAUUGUUCAUA | 0.157 | -0.418 | 0.61 | 0.632 | -0.529 | -0.0494 | -0.0105 | 0.216 | -0.707 | -0.577 | 0.0394 | 0.167 | 1.2 | -0.586 |
| UGUCUUGCAGGCCGUCAUGCA | 0.883 | -2.19 | -0.711 | 0.776 | 0.814 | -1.21 | 1.07 | -0.169 | 1.34 | -0.456 | -0.496 | -0.168 | 0.257 | 0.266 |
| UCAAAUGCUCAGACUCCUGU | 0.918 | -1 | -3.31 | -0.149 | 0.0556 | -0.221 | 0.546 | 0.837 | 1.29 | 1.14 | -3.48 | 0.251 | -0.983 | -0.559 |
| GAGUGCCUUCUUUUGGAGCGU | 0.805 | -0.377 | -0.982 | -0.567 | -3.88 | -0.254 | -0.294 | 2.96 | 0.093 | 0.414 | -0.0488 | 0.0213 | 1.25 | -0.339 |
